Here are results for five compounds from ChEMBL document CHEMBL5465560, “Selectivity Literature for EUbOPEN Chemogenomic Library” (2024).

The target in test [1] is Dual specificity protein kinase CLK1 (Homo sapiens, UniProt P49759). The test is described as follows: Selectivity interaction (Ambit KINOMEscan and KiNATiv profiling in Jurkat cells) EUB0000090b CLK1. It counts as cell-based. The following applies: at 1 µM.
For test [2], the target named is T1, Dual specificity protein kinase TTK (Homo sapiens) (UniProt P33981).
T1 sequence (whole entry): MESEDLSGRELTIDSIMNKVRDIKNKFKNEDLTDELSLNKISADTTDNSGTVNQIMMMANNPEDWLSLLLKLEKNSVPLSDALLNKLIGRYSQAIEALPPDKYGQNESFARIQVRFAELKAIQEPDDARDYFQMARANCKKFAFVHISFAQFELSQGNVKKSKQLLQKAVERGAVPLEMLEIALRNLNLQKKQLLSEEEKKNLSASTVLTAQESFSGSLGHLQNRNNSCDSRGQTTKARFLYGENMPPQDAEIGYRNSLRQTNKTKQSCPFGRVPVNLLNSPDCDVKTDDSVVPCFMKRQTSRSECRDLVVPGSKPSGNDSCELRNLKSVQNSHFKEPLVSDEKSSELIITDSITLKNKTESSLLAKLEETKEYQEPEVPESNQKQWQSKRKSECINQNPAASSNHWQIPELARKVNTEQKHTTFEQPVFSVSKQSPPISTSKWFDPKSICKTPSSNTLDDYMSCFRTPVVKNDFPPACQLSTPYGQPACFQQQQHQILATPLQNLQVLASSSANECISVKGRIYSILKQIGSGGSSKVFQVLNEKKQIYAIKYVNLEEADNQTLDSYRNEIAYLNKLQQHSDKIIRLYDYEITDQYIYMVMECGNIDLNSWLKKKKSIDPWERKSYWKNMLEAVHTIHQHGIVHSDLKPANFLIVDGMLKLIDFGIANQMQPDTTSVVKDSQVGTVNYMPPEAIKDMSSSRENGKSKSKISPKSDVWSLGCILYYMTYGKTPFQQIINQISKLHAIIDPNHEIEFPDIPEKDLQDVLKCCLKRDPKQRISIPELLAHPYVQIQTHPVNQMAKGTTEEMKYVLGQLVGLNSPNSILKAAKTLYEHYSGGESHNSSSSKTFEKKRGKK
The test is described as follows: Selectivity interaction (Ambit KINOMEscan and KiNATiv profiling in Jurkat cells) EUB0000090b TTK. The format is cell-based. As to conditions: at 1 µM.

For test [3], the target named is Serine/threonine-protein kinase SBK1 (Homo sapiens) (UniProt Q52WX2). The test can be described thus: Selectivity interaction (KinomeScan (DiscoverX)) EUB0000695a SBK1. The following applies: at 100 nM.
The target in test [4] is T2, Histone-arginine methyltransferase CARM1 (Homo sapiens) (UniProt Q86X55).
T2 sequence (whole entry): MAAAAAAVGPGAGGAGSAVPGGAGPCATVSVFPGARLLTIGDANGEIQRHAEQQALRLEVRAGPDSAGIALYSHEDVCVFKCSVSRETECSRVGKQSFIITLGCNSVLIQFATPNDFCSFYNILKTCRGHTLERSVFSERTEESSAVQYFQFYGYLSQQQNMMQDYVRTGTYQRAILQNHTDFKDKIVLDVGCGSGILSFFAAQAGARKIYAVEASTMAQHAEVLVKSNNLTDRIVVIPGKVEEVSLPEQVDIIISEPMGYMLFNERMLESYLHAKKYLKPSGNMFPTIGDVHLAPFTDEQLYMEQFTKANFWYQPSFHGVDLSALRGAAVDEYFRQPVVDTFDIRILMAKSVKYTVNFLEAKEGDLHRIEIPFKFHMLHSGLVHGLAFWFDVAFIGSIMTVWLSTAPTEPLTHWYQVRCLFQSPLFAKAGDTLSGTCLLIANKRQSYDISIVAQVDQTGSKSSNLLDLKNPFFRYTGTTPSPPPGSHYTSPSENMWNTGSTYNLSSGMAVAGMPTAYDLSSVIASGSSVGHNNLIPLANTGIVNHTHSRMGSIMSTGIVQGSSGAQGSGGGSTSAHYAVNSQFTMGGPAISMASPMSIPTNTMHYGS
The test can be described thus: Selectivity interaction (Methyltransferase screen (radiometric assays, panel of 8 PRMTs, 21 protein lysine methyltransferases, 3 DNA methyltransferases, and one RNA methyltransferase)) EUB0000271b CARM1.

Test [5] concerns the target T3, Ephrin type-B receptor 3 (Homo sapiens) (UniProt P54753).
T3 sequence (whole entry): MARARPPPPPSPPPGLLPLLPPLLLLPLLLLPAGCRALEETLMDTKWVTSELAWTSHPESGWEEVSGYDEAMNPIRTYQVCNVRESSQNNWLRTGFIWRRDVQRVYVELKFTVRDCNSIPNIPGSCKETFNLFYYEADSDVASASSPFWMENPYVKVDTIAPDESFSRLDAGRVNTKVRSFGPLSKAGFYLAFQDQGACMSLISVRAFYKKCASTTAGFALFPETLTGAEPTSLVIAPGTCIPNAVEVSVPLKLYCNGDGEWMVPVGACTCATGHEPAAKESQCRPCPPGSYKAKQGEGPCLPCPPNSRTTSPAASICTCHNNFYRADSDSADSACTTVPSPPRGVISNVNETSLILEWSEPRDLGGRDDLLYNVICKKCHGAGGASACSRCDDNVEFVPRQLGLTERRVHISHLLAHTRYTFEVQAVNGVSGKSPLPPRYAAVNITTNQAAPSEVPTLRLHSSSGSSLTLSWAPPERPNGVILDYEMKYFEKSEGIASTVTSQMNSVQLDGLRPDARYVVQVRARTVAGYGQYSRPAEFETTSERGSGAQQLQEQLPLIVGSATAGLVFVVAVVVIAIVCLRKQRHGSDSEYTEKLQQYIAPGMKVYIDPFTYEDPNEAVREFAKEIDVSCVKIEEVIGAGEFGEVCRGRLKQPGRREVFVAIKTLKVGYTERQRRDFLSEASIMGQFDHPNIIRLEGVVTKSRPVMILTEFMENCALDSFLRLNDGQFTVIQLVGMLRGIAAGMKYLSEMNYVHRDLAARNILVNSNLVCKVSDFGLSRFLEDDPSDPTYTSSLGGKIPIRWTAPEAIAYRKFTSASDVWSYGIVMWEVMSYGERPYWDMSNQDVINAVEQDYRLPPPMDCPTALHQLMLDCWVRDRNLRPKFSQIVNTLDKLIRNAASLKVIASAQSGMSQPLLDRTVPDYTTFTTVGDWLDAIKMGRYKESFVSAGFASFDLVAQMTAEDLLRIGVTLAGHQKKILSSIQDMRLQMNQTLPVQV
The test can be described thus: Selectivity interaction (KinomeScan (DiscoverX)) EUB0001619a EPHB3. The following applies: at 1 µM.

The target in test [6] is Epithelial discoidin domain-containing receptor 1 (Homo sapiens) (UniProt Q08345). The test can be described thus: Selectivity interaction (KinomeScan (DiscoverX)) EUB0000618a DDR1. As to conditions: at 10 µM.

Molecules are shown by their SMILES.

Chain of Serine/threonine-protein kinase SBK1 (Homo sapiens) (Q52WX2 whole entry): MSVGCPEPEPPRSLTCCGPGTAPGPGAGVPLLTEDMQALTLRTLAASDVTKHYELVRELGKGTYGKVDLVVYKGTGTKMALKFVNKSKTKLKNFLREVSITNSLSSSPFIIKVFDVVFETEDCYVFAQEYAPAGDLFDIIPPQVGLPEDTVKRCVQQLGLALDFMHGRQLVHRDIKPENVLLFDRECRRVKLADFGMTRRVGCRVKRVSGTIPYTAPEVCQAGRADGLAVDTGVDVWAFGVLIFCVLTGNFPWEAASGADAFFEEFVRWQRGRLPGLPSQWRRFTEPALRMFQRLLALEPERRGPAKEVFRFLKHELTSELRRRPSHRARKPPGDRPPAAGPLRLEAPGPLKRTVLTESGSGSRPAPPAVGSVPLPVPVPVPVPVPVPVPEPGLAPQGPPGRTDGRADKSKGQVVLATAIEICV
Chain of Epithelial discoidin domain-containing receptor 1 (Homo sapiens) (Q08345 whole entry, the tested form may be a part): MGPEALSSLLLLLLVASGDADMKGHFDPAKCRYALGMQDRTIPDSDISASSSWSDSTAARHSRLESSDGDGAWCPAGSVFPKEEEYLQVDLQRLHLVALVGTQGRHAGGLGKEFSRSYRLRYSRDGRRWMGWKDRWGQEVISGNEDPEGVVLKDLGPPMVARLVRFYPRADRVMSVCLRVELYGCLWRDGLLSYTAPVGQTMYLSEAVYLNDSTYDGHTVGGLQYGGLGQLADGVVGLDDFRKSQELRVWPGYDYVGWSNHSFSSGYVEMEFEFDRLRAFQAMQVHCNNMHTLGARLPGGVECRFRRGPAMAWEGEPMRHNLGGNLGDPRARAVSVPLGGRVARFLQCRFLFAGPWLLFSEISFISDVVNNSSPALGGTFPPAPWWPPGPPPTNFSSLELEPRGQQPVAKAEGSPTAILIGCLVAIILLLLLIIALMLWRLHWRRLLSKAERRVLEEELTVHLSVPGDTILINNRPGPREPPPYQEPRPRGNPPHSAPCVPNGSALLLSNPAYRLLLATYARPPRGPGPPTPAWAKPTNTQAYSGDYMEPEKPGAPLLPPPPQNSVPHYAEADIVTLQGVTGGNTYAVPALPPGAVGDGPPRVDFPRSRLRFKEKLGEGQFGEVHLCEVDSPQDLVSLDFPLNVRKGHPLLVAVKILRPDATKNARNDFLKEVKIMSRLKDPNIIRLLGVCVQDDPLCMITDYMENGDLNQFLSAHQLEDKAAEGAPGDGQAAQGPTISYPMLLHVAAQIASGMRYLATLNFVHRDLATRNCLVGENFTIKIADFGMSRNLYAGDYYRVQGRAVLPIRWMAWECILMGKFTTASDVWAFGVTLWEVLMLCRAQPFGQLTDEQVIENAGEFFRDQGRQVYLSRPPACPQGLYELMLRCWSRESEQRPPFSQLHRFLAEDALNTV
Chain of Dual specificity protein kinase CLK1 (P49759 whole entry, looked up): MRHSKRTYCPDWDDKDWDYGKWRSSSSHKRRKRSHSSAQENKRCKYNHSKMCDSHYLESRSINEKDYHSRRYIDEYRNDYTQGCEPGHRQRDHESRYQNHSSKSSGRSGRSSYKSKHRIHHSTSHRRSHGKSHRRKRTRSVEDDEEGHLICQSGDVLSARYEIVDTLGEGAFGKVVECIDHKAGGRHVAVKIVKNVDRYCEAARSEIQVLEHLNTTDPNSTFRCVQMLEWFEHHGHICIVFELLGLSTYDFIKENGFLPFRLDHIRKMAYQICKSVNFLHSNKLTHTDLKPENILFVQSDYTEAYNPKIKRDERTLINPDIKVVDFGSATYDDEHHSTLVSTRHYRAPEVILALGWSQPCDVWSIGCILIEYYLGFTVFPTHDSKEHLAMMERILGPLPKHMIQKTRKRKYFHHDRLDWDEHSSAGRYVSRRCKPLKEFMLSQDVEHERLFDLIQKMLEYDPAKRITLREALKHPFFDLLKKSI

Take `CN(C)C/C=C/C(=O)Nc1ccc(C(=O)N2CCCC(Nc3ncc(Cl)c(-c4c[nH]c5ccccc45)n3)C2)cc1` (configuration not stated): the % of control in test [1] worked out at 62%; in test [2], 81%.
In test [3], `Cc1cc(F)c(C(=O)Nc2cccc(-c3nncn3C(C)C)n2)cc1-n1cnc(C2CC2)c1` came in with a % of control of 93%.
In the case of `Cc1cc(C)cc([C@@H]2c3cc(C)ccc3NC(=O)CN2C(=O)c2ccc(Br)s2)c1`, the values for the % of activity in test [4] (at 1 µM) and in test [4] (at 10 µM) were 98% and 96.3%, respectively.
On to `N#Cc1cccc(-c2c[nH]c3ncnc(N4CCOCC4)c23)c1`, for which the % of control in test [5] was found to be 100%.
The compound `O[C@H]1CC[C@H](Nc2ncc3nc(Nc4c(F)cc(F)cc4F)n([C@H]4CCOC4)c3n2)CC1` yielded a % of control in test [6] of 27%.
